The record followed here is paper PMC12067145 (ACS Medicinal Chemistry Letters, 2025).

Where only a bound is given, the exact number is not on record here.

Data set [1] is described as follows: Plasma protein binding (rat). The class given is in vitro ADME. To be noted: pH 7.4, read-out: PPB rat. As to the method:
0.3% DMSO - ΔRatio of 1 µM control compound)x100
In vitro Plasma protein binding and Brain homogenate binding: Determination of fraction unbound (f u) in plasma was conducted in vitro via equilibrium dialysis using HTDialysis (HTD) membrane plates. The top half of the plate was filled with 100 uL of Dubelco’s Phosphate Buffered Saline, pH 7.4 (DPBS). Compounds were diluted into plasma from each species (5 µM final concentration), which was aliquoted in triplicate to the ‘bottom half’ of the prepared HTD plate wells. The HTD plate was sealed and incubated for 6 hours at 37 °C. Following incubation, each well (both top and bottom halves) were transferred (20 µL) to the corresponding wells of a 96-shallow-well (V-bottom) plate. The daughter plates were then matrix-matched (DPBS side wells received equal volume of plasma, and plasma side wells received equal volume of DPBS), and extraction solution (120 µL; acetonitrile containing 50 nM carbamazepine as IS) was added to all wells of both daughter plates to precipitate protein and extract test article. The plates were then sealed and centrifuged (3500 rcf) for 10 minutes at ambient temperature. […]
The unbound fraction (f u) was calculated following the equation below, and mean values for each species were calculated from 3 replicates. […] Fraction unbound for both plasma and brain samples was determined using Equation 4.

The nature of data set [2]: Liver microsome intrinsic clearance (mouse). As to conditions: pH 7.4; mouse liver microsomes; read-out: LMS CLINT mouse. In kind it is in vitro ADME. As to the method:
After a 5 min preincubation, the reaction was initiated by the addition of NADPH (1 mM). At selected time intervals between 0 ~ 60 min (e.g. 0, 3, 7, 15, 25, 45 and/or 60 min), aliquots were taken and subsequently placed into a 96-well plate containing cold acetonitrile with an internal standard (50 ng/mL carbamazepine). Plates were then centrifuged at 3000 rcf (4 °C) for 10 min, and the supernatant was transferred to a separate 96-well plate and diluted 1:1 with water for LC/MS/MS analysis. The in vitro half-life (T 1/2, min, Eq. 1), intrinsic clearance (CLint, mL/min/kg, Eq. 2), and subsequent predicted hepatic clearance (CLhep, mL/min/kg, Eq. 3) were determined employing the following equations: […]
where k represents the slope from linear regression analysis of the natural log percent remaining of a test compound as a function of incubation time […]
(2) CLint = in vitroT1/2 x mg microsomes x gram liver x kg body wt ascale-up factors: of 20 (human) or 45 (rat) or 87.5 (mouse) […]
where Qh (hepatic blood flow, mL/min/kg) is 21 (human) or 70 (rat) or 90 (mouse).
LC/MS/MS Bioanalysis of Samples from Plasma Protein Binding and Intrinsic Clearance […]
Samples were analyzed on a Thermo Electron TSQ Quantum Ultra triple quad mass spectrometer (San Jose, CA) via electrospray ionization (ESI) with two Themo Electron Accella pumps (San Jose, CA), and a Leap Technologies CTC PAL autosampler (Carrboro, NC). Analytes were separated by gradient elution on a dual column system with two Thermo Hypersil Gold (2.1 x 30 mm, 1.9 µm) columns (San Jose, CA) thermostated at 40 °C. HPLC mobile phase A was 0.1% formic acid in water and mobile phase B was 0.1% formic acid in acetonitrile. The gradient started […]
for 0.2 min; returned to 10% B in 0.1 min. The total run time was 1.3 min and the HPLC flow rate was 0.8 mL/min. While pump 1 ran the gradient method, pump 2 equilibrated the alternate column isocratically at 10% B. Compound optimization, data collection, and processing were performed using Thermo Electron's QuickQuan software (v2.3) and Xcalibur (v2.0.7 SP1). […]
Background: Liver microsomes are vesicles of endoplasmic reticulum, rich in cytochrome P450 enzymes.

The next data set concerns male CD-1 mice. Description: MK-801 challenged novel object recognition (NOR) task. In kind it is in vivo, mouse. As to conditions: IP, 3.5 h prior to MK-801 (0.2 mg/kg IP).
The next data set deals with Kir2.1 (Homo sapiens, UniProt P63252). The data set can be described thus: Cardiac ion channel MPC selectivity panel. The class given is cell-based.
Kir2.1, sequence (P63252 whole entry): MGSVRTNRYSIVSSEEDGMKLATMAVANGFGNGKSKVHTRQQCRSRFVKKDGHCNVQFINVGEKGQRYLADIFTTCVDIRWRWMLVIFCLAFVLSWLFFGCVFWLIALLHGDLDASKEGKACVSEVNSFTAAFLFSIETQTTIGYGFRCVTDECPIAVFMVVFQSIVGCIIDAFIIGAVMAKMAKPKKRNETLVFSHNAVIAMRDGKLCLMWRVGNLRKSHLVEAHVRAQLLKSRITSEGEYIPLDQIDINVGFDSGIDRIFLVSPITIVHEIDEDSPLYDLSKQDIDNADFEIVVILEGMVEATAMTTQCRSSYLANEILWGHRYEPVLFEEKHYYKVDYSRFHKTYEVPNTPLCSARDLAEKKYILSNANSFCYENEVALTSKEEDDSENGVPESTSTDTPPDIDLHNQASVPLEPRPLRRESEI
The target in the next data set is Glutamate, NMDA, Glycine (Rattus norvegicus, UniProt P35439). Description: Eurofins lead profiling screen (radioligand binding).
The next data set concerns Purinergic P2Y. The data set is described as above. The arrangement: species or system Rat.
The target of a further data set is Adenosine A1 (Homo sapiens, UniProt P30542). Described as above.
Adenosine A1, sequence (P30542 whole entry): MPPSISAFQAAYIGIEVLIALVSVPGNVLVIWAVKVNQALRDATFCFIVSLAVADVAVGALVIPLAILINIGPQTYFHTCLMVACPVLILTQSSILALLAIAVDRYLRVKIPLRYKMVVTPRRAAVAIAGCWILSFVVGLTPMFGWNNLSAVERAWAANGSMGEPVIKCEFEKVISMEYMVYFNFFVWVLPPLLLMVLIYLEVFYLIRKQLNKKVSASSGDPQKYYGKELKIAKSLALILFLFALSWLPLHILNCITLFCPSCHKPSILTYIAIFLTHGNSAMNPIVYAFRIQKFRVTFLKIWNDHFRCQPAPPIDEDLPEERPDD
Data set [3] has as its target Transporter, Norepinephrine (NET) (Homo sapiens, UniProt P23975). The data set is described as above.
The target in data set [4] is Transporter, Serotonin (SERT) (Homo sapiens, UniProt P31645). The data set is described as above.
The target in a further data set is Prostanoid EP4 (Homo sapiens, UniProt P35408). The description is as above.
Prostanoid EP4, sequence (P35408 whole entry): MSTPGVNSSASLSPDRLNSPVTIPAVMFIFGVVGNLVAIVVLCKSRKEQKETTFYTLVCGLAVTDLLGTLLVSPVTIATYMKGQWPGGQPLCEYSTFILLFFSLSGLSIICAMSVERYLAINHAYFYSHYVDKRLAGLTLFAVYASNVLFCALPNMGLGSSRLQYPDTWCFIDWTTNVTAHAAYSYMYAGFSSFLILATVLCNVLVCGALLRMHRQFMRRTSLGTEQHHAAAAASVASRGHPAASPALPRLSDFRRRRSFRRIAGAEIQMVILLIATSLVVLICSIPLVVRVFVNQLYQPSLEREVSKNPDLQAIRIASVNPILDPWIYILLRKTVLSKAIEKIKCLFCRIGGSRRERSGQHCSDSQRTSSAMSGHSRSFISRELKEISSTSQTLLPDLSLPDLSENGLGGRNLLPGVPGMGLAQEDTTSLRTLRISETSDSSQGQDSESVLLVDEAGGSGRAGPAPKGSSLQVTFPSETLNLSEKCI
The target in a further data set is Opiate κ (OP2, KOP) (Homo sapiens, UniProt P41145). Described as above.
Opiate κ (OP2, KOP), sequence (P41145 whole entry): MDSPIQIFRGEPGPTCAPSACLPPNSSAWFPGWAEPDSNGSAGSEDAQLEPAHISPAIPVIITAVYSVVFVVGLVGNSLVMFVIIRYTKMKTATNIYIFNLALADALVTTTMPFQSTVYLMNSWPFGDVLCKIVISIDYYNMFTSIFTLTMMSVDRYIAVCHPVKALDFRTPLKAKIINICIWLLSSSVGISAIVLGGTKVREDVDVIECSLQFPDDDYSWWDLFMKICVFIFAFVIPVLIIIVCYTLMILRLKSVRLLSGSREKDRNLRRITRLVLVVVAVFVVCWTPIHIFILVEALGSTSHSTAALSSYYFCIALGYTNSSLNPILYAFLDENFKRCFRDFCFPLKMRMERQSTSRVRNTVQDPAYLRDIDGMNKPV
In data set [5] the target is Calcium Channel L-Type, Benzothiazepine (Rattus norvegicus, UniProt P22002). Described as above.
In a further data set the test system is Glutamate, NMDA, Agonism. The description is as above. Further details: species or system Rat.
The next data set has as its target Estrogen ERα (Homo sapiens, UniProt P03372). The data set is described as above.
The target of a further data set is Histamine H1 (Homo sapiens, UniProt P35367). The data set is described as above.
Histamine H1, sequence (P35367 whole entry): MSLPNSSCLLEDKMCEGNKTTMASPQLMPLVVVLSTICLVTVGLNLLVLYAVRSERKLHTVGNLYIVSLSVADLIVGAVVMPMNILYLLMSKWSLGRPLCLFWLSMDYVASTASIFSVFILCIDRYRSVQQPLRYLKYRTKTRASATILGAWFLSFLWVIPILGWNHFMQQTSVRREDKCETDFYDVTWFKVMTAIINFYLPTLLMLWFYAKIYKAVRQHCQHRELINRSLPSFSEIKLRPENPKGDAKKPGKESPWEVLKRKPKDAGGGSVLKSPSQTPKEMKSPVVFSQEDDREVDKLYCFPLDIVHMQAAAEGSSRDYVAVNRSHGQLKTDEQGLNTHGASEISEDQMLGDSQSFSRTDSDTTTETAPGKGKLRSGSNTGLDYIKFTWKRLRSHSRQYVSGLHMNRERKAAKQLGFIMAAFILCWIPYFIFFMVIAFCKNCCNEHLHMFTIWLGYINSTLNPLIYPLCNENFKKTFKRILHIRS
A further data set deals with Adrenergic α2A (Homo sapiens, UniProt P08913). The data set is described as above.
Adrenergic α2A, sequence (P08913 whole entry): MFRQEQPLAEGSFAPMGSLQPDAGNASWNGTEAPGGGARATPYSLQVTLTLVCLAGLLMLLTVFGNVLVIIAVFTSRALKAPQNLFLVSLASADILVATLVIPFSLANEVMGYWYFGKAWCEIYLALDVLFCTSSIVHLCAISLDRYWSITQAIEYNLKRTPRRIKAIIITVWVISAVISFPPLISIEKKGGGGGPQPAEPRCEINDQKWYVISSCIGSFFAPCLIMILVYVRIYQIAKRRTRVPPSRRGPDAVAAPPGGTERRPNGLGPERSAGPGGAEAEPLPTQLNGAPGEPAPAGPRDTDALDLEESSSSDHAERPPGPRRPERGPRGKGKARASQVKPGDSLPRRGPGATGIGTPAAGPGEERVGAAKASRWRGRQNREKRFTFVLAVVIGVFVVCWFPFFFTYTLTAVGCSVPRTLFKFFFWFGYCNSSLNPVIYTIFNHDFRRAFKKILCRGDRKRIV
A further data set deals with Neuropeptide Y Y2 (Homo sapiens, UniProt P49146). The data set is described as above.
Neuropeptide Y Y2, sequence (P49146 whole entry): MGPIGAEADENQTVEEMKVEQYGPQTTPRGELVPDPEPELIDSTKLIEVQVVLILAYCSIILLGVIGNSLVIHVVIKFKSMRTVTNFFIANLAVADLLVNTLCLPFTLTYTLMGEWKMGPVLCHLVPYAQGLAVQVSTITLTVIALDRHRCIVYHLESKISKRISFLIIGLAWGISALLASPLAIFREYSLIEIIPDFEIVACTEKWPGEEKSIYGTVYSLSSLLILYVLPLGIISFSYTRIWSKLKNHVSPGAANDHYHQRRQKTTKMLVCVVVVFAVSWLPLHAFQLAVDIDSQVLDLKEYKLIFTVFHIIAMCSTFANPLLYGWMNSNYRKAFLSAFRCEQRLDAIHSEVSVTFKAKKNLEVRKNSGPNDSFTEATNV
Another data set has as its target Interleukin IL-1 R1 (Homo sapiens, UniProt P14778). Described as above.
For a further data set, the target named is Dopamine D3 (Homo sapiens, UniProt P35462). The description is as above.
Dopamine D3, sequence (P35462 whole entry): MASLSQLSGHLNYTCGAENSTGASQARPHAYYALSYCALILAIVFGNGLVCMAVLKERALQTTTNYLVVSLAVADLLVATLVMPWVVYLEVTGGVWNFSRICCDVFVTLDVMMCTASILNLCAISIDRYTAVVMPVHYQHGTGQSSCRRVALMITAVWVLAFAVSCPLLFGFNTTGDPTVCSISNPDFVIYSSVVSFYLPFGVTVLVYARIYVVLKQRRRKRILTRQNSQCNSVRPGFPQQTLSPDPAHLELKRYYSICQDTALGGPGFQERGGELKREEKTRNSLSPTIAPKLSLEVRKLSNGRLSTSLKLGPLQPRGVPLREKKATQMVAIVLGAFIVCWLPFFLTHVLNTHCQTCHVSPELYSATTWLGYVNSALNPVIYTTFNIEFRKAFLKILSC

Transporter, Norepinephrine (NET), sequence (P23975 whole entry): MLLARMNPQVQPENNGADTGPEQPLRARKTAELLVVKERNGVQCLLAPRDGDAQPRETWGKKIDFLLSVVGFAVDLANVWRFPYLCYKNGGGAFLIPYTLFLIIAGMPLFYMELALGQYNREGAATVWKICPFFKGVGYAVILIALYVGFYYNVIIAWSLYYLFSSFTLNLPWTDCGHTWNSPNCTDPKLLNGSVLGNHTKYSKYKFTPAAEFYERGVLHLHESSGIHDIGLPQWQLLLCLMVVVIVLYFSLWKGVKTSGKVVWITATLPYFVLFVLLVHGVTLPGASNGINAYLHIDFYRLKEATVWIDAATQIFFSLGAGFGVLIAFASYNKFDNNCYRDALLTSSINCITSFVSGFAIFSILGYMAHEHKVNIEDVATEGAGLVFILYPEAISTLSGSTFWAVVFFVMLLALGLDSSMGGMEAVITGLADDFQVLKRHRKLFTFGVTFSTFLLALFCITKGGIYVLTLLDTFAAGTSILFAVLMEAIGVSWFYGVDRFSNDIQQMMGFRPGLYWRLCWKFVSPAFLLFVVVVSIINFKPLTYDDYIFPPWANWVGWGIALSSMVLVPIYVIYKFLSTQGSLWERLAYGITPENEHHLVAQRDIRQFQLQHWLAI
Estrogen ERα, sequence (P03372 whole entry): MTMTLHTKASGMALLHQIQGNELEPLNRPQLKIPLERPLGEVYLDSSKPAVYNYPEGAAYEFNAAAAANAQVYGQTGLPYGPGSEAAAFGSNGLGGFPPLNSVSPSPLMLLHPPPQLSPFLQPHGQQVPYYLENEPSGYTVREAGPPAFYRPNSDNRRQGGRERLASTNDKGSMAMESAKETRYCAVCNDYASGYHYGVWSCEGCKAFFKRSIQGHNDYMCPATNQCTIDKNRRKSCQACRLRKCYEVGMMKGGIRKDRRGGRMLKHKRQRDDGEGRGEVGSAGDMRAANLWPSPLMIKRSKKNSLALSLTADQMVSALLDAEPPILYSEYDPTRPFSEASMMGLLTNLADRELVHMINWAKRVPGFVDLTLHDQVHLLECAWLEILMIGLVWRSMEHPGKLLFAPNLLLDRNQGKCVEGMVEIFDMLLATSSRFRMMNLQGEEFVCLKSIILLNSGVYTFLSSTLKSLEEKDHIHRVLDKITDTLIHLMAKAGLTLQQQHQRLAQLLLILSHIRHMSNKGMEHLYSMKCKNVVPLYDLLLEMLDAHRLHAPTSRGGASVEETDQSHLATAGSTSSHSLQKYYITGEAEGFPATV
Description for male CD-1 mice: A plastic chamber (W 345×L 400×H 180 mm) was used for the novel object recognition test. The light intensity in the test room was maintained at approximately 20 lux. The novel object recognition test was conducted over two days. On the first day, mice were placed in the chamber without any objects and allowed to explore freely for 10 minutes to acclimate to the experimental environment. […] Thirty minutes after the MK-801 challenge, the acquisition trial

`Cc1cc(C#Cc2ccc(F)cc2)cnc1NC(=O)c1cc(NC(=O)OC(C)(C)C)ccc1Cl` [Compound 14c]: the fraction unbound at 6 h, 5 µM in data set [1] was determined as 0.001. Moreover, the CLint scaled at 1 µM in data set [2] came out at 13 mL/min/kg. In addition, in the data set with male CD-1 mice, the “minimum effective dose (MED)” value amounted to 10 mg/kg. Further, the “% at 10 μM, Kir2.1” value on Kir2.1 is recorded as less than 50%.

For orientation: inhibition means the drop in the measured response relative to a control, in per cent. For orientation: % Inhibition means the percentage by which the read-out fell short of the control. A higher % Inhibition goes with a strong effect. Regarding `O=C(NCc1ccc(OC(F)(F)F)cc1F)c1ccc2ncnn2c1` [ONO-2920632], the inhibition at 10 µM is -6% on Glutamate, NMDA, Glycine; 2% at Adenosine A1; 29% in [3]; -3% in [4]; 19% at Prostanoid EP4; 9% on Opiate κ (OP2, KOP). For the same molecule, the inhibition at 10 µM in data set [5] is 56%; on Estrogen ERα, 8%; at Histamine H1, 12%; on Adrenergic α2A, 36%; on Neuropeptide Y Y2, 6%; on Interleukin IL-1 R1, -1%. Further, the inhibition at 10 µM at Dopamine D3 came out at 12%. In addition, the “% Inhibition at 10 µM” value in the data set with Purinergic P2Y was 1%; in the data set on Glutamate, NMDA, Agonism, 2%.
